Test results as given in PMC8863796 (Communications Biology, 2022).

Legend:
[1] = biological target: T1, SARS-CoV-2 RdRp complex (nsp12/nsp7/nsp8) (Severe acute respiratory syndrome coronavirus 2, UniProt P0DTD1); experiment: Extension reactions of RNA template-loop-primers with nucleotide analogue triphosphates; type: biochemical; details: single-base extension of RNA template-loop-primers
T1 construct: made in house
Procedure: In total, 10 µL of 10 µM RNA template-loop-primers (5′-[…]-3′ for RDV-TP extension; 5′-[…]-3′ for SOF-TP extension) in 1 × RdRp reaction buffer was annealed by heating to 75 °C for 3 min and cooling to room temperature. In all, 5 µL of 8 µM RdRp complex (nsp12/nsp7/nsp8)[11],[20] in 1× reaction buffer was added to the annealed RNA template-loop-primer solution and incubated for an additional 10 min at room temperature. Finally, 5 µL of a solution containing 0.2 mM RDV-TP or 2 mM SOF-TP in 1× reaction buffer was added, and incubation was carried out for 2 h at 30 °C. The final concentrations of reagents in the 20 µL extension reactions were 2 µM nsp12/nsp7/nsp8, 5 µM RNA template-loop-primer, 50 µM RDV-TP, and 500 µM SOF-TP. The 1× reaction buffer contains the following reagents: 10 mM Tris-HCl pH 8, 10 mM KCl, 2 mM MgCl2 and 1 mM β-mercaptoethanol. Desalting of the reaction mixture was performed with an Oligo Clean & Concentrator kit (Zymo Research) resulting in ~10 µL purified aqueous RNA solutions. 1 µL of each solution was subjected to MALDI-TOF MS (Bruker ultrafleXtreme) analysis. The remaining ~9 µL extended template-loop-primer solutions were used to test exonuclease activity.
The RNA template-loop primer (5′-[…]-3′) was annealed at 75 °C for 3 min and cooled to room temperature for 25 min in 1× ThermoPol buffer before adding the other ingredients. The final 20 µL mixture containing 5 µM of the RNA template-loop primer, 250 µM, 500 µM or 1 mM AT-9010, 2 mM MnCl2 and 0.2 unit Therminator II in 1× ThermoPol buffer was incubated in a thermal cycler using the following protocol (28 cycles of 45 °C for 30 s, 55 °C for 30 s, 65 °C for 30 s). Desalting of the reaction mixture was performed with an Oligo Clean & Concentrator kit (Zymo Research) resulting in ~10 µL purified aqueous RNA solutions. 1 µL of each solution was subjected to MALDI-TOF MS (Bruker ultrafleXtreme) analysis. The remaining ~9 µL extended template-loop-primer solutions were used to test exonuclease activity. […]

[2] = biological target: SARS-CoV-2 exonuclease complex (nsp14/nsp10) (Severe acute respiratory syndrome coronavirus 2, UniProt P0DTD1); parameters: method as in earlier work; details: previously demonstrated; cited from earlier work

Compound	incorporation into RNA (template base opposite) [1]	inhibition of SARS-CoV-2 exonuclease [2]
C[C@@]1(F)[C@H](O)[C@@H](COP(=O)(O)OP(=O)(O)OP(=O)(O)O)O[C@H]1n1cnc2c(=O)[nH]c(N)nc21 [AT-9010, 2’-fluoro-2’-methyl guanosine-5’-triphosphate]	incorporated opposite C	
NC(=O)c1nc(F)cn([C@@H]2O[C@H](COP(=O)(O)OP(=O)(O)OP(=O)(O)O)[C@@H](O)[C@H]2O)c1=O [Favipiravir-RTP, Favipiravir-ribofuranosyl-5’-triphosphate]	incorporated into RNA opposite C or U	
O=c1nc(NO)ccn1[C@@H]1O[C@H](COP(=O)(O)OP(=O)(O)OP(=O)(O)O)[C@@H](O)[C@H]1O [NHC-TP, N^4-hydroxycytidine-5’-triphosphate]	incorporated opposite A or G	
COC[C@H]1C[C@@H](c2nc(-c3ccc4c(c3)COc3cc5c(ccc6nc([C@@H]7CC[C@H](C)N7C(=O)[C@@H](NC(=O)OC)C(C)C)[nH]c65)cc3-4)c[nH]2)N(C(=O)[C@H](NC(=O)OC)c2ccccc2)C1 [Velpatasvir]		can inhibit the SARS-CoV-2 exonuclease
